{"source": "patent US11596639B2", "about": "“Substituted indole Mcl-1 inhibitors” (Vanderbilt University, priority 2016, dated 2023)", "test_system": "H929 human cancer cell lines", "experiment": "Cellular viability / proliferation (Cell TiterGlo, 72 h)", "assay_type": "cell-based", "method": "Cellular Viability of Human Tumor Cell Lines\nTo evaluate compound effect on cellular proliferation, cells were plated at 1,000 cells/well in 96-well tissue culture plates in a total volume of 90 μL medium supplemented with 10% FBS (Sigma, Saint Louis, Mo.). 24 hours later, 10 μL of compound (in a 2-fold serial dilution) is added to the cells for a top concentration of 50 μM and a final DMSO concentration <1%. After 72 hours, 50 μL of Cell TiterGlo (Promega, Madison, Wis., USA) reagent is added to each well and plates are incubated at room temperature, in the dark, for 30 minutes. Luminescence is measured on a BioTek Cytation 3. Luminescence values are imported into a template in XLFit (Guildford, Surrey, UK) that uses a four-parameter fit to generate an IC50 value for each compound dilution series on the plate.", "key": {"[1]": {"conditions": "read-out: GI50 on cellular proliferation of H929 human cancer cell lines, H929 cells, 72 h, Cell TiterGlo, 10% FBS"}, "[2]": {"conditions": "Homo sapiens, NCI-H929, 72 h, read-out: GI50 on cellular proliferation of H929 human cancer cell lines, H929 cells, 72 h, Cell TiterGlo, 10% FBS"}}, "note": "Read-outs that look alike come from different tables or passages of the source.", "data": [{"smiles": "Cc1cc(OCCCc2c3n(c4c(-c5c(C)ncnc5C)c(C)ccc24)[C@H](C)CN(c2cccc4cc(C(=O)O)n(Cc5ccccn5)c24)C3=O)cc(C)c1Cl", "note": "(atropisomer, axis not shown) [Example 276, (R)-7-(10-(3-(4-chloro-3,5-dimethylphenoxy)propyl)-6-(4,6-dimethylpyrimidin-5-yl)-4,7-dimethyl-1-oxo-3,4-dihydropyrazino[1,2-a]indol-2(1H)-yl)-1-(pyridin-2-ylmethyl)-1H-indole-2-carboxylic acid]", "values": [{"measurement": "GI50", "setting": "[1]", "value": 290, "unit": "nM"}]}, {"smiles": "Cc1cc(OCCCc2c3n(c4c(-c5c(C)nn(C)c5C)c(Cl)ccc24)CCCN(c2cc(C(=O)O)c4ccn(C)c4c2)C3=O)cc(C)c1Cl", "note": "(single isomer, unassigned) [Example 431, 6-(8-Chloro-11-(3-(4-chloro-3,5-dimethylphenoxy)propyl)-1-oxo-7-(1,3,5-trimethyl-1H-pyrazol-4-yl)-4,5-dihydro-1H-[1,4]diazepino[1,2-a]indol-2(3H)-yl)-1-methyl-1H-indole-4-carboxylic acid]", "values": [{"measurement": "GI50", "setting": "[2]", "value": 2900, "unit": "nM"}]}, {"smiles": "Cc1cc(OCCCc2c3n(c4c(-c5c(C)nn(C)c5C)c(Cl)ccc24)[C@@H](C)CN(c2cn(C)c4ccc(C(=O)O)cc24)C3=O)cc(C)c1Cl", "note": "[Example 212, (S)-3-(7-chloro-10-(3-(4-chloro-3,5-dimethylphenoxy)propyl)-4-methyl-1-oxo-6-(1,3,5-trimethyl-1H-pyrazol-4-yl)-3,4-dihydropyrazino[1,2-a]indol-2(1H)-yl)-1-methyl-1H-indole-5-carboxylic acid]", "values": [{"measurement": "GI50", "setting": "[2]", "value": 3400, "unit": "nM"}]}, {"smiles": "Cc1cc(OCCCc2c3n(c4c(-c5c(C)nn(C)c5C)c(Cl)ccc24)[C@H](C)CN(c2cccc4c(C(N)=O)cn(C)c24)C3=O)cc(C)c1Cl", "note": "[Example 357, (R)-7-(7-Chloro-10-(3-(4-chloro-3,5-dimethylphenoxy)propyl)-4-methyl-1-oxo-6-(1,3,5-trimethyl-1H-pyrazol-4-yl)-3,4-dihydropyrazino[1,2-a]indol-2(1H)-yl)-1-methyl-1H-indole-3-carboxamide]", "values": [{"measurement": "GI50", "setting": "[2]", "value": 2000, "unit": "nM"}]}, {"smiles": "Cc1cc(OCCCc2c3n(c4c(-c5c(C)nn(C)c5C)c(Cl)ccc24)CCCN(c2cc(C(=O)O)c4ccn(C)c4c2)C3=O)cc(C)c1Cl", "note": "(single isomer, unassigned) [Example 440, 6-(8-chloro-11-(3-(4-chloro-3,5-dimethylphenoxy)propyl)-1-oxo-7-(1,3,5-trimethyl-1H-pyrazol-4-yl)-4,5-dihydro-1H-[1,4]diazepino[1,2-a]indol-2(3H)-yl)-1-methyl-1H-indole-4-carboxylic acid]", "values": [{"measurement": "GI50", "setting": "[1]", "value": 4500, "unit": "nM"}]}, {"smiles": "COc1ccc(N2C[C@@H](C)n3c(c(CCCOc4cc(C)c(Cl)c(C)c4)c4ccc(Cl)c(-c5c(C)nn(C)c5C)c43)C2=O)c2c1c(C(=O)O)cn2Cc1cccc(C)n1", "note": "[Example 621, (R)-7-(7-chloro-10-(3-(4-chloro-3,5-dimethylphenoxy)propyl)-4-methyl-1-oxo-6-(1,3,5-trimethyl-1H-pyrazol-4-yl)-3,4-dihydropyrazino[1,2-a]indol-2(1H)-yl)-4-methoxy-1-((6-methylpyridin-2-yl)methyl)-1H-indole-3-carboxylic add]", "values": [{"measurement": "GI50", "setting": "H929 cells, 72 h, Cell TiterGlo, 10% FBS, read-out: GI50 on cellular proliferation of H929 human cancer cell lines", "value": 390, "unit": "nM"}]}, {"smiles": "COc1ccc(N2C[C@@H](C)n3c(c(CCCOc4cc(C)c(Cl)c(C)c4)c4ccc(Cl)c(-c5c(C)nn(C)c5C)c43)C2=O)c2c1c(C(=O)O)cn2Cc1cccc(C)n1", "note": "[Example 622, (R)-7-(7-chloro-10-(3-(4-chloro-3,5-dimethylphenoxy)propyl)-4-methyl-1-oxo-6-(1,3,5-trimethyl-1H-pyrazol-4-yl)-3,4-dihydropyrazino[1,2-a]indol-2(1H)-yl)-4-methoxy-1-((6-methylpyridin-2-yl)methyl)-1H-indole-3-carboxylic acid]", "values": [{"measurement": "GI50", "setting": "[2]", "value": 920, "unit": "nM"}]}]}
